The record followed here is PubChem BioAssay AID274 (DTP/NCI, 2004).

For this assay, the system named is BDF1 mice, Lewis lung carcinoma iv, survival T/C. The experiment in a line: NCI In Vivo Anticancer Drug Screen. Data for tumor model Lewis Lung Carcinoma (intravenous) in B6D2F1 (BDF1) mice. Conditions: endpoint: median survival time, higher = longer survival. Here is the method: The antitumor activity of compounds was measured in mice bearing transplantable tumors. Survival or tumor size were measured and the results are expressed as the measurement made in the treated group (T) divided by the measurement made in the vehicle treated control group (C). The tumor model used in this assay is Lewis Lung Carcinoma (intravenous) in B6D2F1 (BDF1) mice

[1] abbreviates: dose: 2.5 mg/kg/injection, schedule: Q01DX009 (ip), vehicle: saline.
[2] abbreviates: dose: 5.0 mg/kg/injection, schedule: Q01DX009 (ip), vehicle: saline.
Setting [3] is: dose: 12.5 mg/kg/injection, schedule: Q01DX009 (ip), vehicle: saline with Tween-80.
Where [4] appears, read: dose: 25.0 mg/kg/injection, schedule: Q01DX009 (ip), vehicle: saline with Tween-80.
[5] abbreviates: dose: 50.0 mg/kg/injection, schedule: Q01DX009 (ip), vehicle: saline with Tween-80.
Setting [6] is: dose: 100.0 mg/kg/injection, schedule: Q01DX009 (ip), vehicle: saline with Tween-80.
Setting [7] is: dose: 200.0 mg/kg/injection, schedule: Q01DX009 (ip), vehicle: saline with Tween-80.

Several values for one entry are separate records, joined by “and”; a condition that tells them apart may be missing. Equal entries are not always repeated. Toxic doses and inconclusive results are not listed.

For `CC1=C(/C=C/C(C)=C/C=C/C(C)=C/C(=O)O)C(C)(C)CCC1`, the T/C reads like this: (dose: 4.0 mg/kg/injection, schedule: Q01DX005 (ip), vehicle: saline with Tween-80) 92 % of control; (dose: 8.0 mg/kg/injection, schedule: Q01DX005 (ip), vehicle: saline with Tween-80) 95 % of control; (dose: 16.0 mg/kg/injection, schedule: Q01DX005 (ip), vehicle: saline with Tween-80) 102 % of control; (dose: 32.0 mg/kg/injection, schedule: Q01DX005 (ip), vehicle: saline with Tween-80) 91 % of control; (dose: 128.0 mg/kg/injection, schedule: Q01DX005 (ip), vehicle: saline with Tween-80) 91 % of control.

For the compound `O=C(O)CC(NC(=O)CP(=O)(O)O)C(=O)O.[NH-]C1CCCCC1[NH-].[Pt+2]` (stereo not drawn), the T/C runs as follows: (dose: 0.4 mg/kg/injection, schedule: Q01DX009 (ip), vehicle: dextrose) 90 % of control; (dose: 0.8 mg/kg/injection, schedule: Q01DX009 (ip), vehicle: dextrose) 110 % of control; (dose: 1.6 mg/kg/injection, schedule: Q01DX009 (ip), vehicle: dextrose) 99 % of control; (dose: 3.0 mg/kg/injection, schedule: Q01DX009 (ip), vehicle: dextrose) 108 % of control; (dose: 3.2 mg/kg/injection, schedule: Q01DX009 (ip), vehicle: dextrose) 103 % of control; (dose: 6.25 mg/kg/injection, schedule: Q01DX009 (ip), vehicle: dextrose) 110 % of control.

For the compound `NC(=O)C(F)C(N)C(=O)O` (stereo not drawn), the T/C reads like this: (dose: 25.0 mg/kg/injection, schedule: Q01DX009 (ip), vehicle: saline) 99 % of control; (dose: 50.0 mg/kg/injection, schedule: Q01DX009 (ip), vehicle: saline) 100 % of control; (dose: 100.0 mg/kg/injection, schedule: Q01DX009 (ip), vehicle: saline) 103 % of control.

In the case of `CC[C@]1(O)C[C@H]2CN(CCc3c([nH]c4ccccc34)[C@@](C(=O)OC)(c3cc4c(cc3OC)N(C)[C@H]3[C@@](O)(C(=O)OC)[C@H](OC(C)=O)[C@]5(CC)C=CCN6CC[C@]43[C@@H]65)C2)C1`, the T/C is 106 % of control (dose: 0.6 mg/kg/injection, schedule: Q04DX003 (ip), vehicle: saline); 93 % of control (2×) and 102 % of control (dose: 125.0 micrograms/kg/injection, schedule: Q04DX003 (ip), vehicle: saline); 92 % of control (2×) and 95 % of control (dose: 250.0 micrograms/kg/injection, schedule: Q04DX003 (ip), vehicle: saline); 111 % of control (dose: 360.0 micrograms/kg/injection, schedule: Q01DX009 (ip), vehicle: saline); 92 % of control (2×) and 95 % of control (dose: 500.0 micrograms/kg/injection, schedule: Q04DX003 (ip), vehicle: saline); 92 % of control (dose: 600.0 micrograms/kg/injection, schedule: Q01DX009 (ip), vehicle: saline).

With `Cn1cnc([N+](=O)[O-])c1Sc1nc(N)nc2c1ncn2C1OC(CO)C(O)C1O` (stereo not drawn), the T/C runs as follows: (dose: 0.78 mg/kg/injection, schedule: Q01DX009 (ip), vehicle: saline with Tween-80) 97 % of control; (dose: 1.56 mg/kg/injection, schedule: Q01DX009 (ip), vehicle: saline with Tween-80) 116 % of control; (dose: 3.13 mg/kg/injection, schedule: Q01DX009 (ip), vehicle: saline with Tween-80) 105 % of control; (dose: 6.25 mg/kg/injection, schedule: Q01DX009 (ip), vehicle: suspension in saline) 107 % of control.

Consider `O=c1[nH]cc(F)c(=O)[nH]1`, for which the T/C reads like this: (dose: 2.0 mg/kg/injection, schedule: Q01DX009 (ip), vehicle: saline) 106 % of control; under setting [1], 108 % of control; (dose: 4.0 mg/kg/injection, schedule: Q01DX009 (ip), vehicle: saline) 110 % of control; under setting [2], 116 % of control; (dose: 7.5 mg/kg/injection, schedule: Q04DX003 (ip), vehicle: saline) 96 % of control (2×) and 110 % of control; (dose: 8.0 mg/kg/injection, schedule: Q01DX009 (ip), vehicle: saline) 112 % of control. For the same compound, the T/C was 122 % of control (dose: 9.8 mg/kg/injection, schedule: Q01DX009 (ip), vehicle: saline); 104 % of control and 109 % of control and 122 % of control (dose: 10.0 mg/kg/injection, schedule: Q01DX009 (ip), vehicle: saline); 104 % of control (dose: 13.2 mg/kg/injection, schedule: Q04DX006 (ip), vehicle: saline); 163 % of control (dose: 14.0 mg/kg/injection, schedule: Q01DX009 (ip), vehicle: saline); 193 % of control (dose: 14.0 mg/kg/injection, schedule: Q01DX022 (ip), vehicle: saline); 105 % of control and 110 % of control (2×) (dose: 15.0 mg/kg/injection, schedule: Q04DX003 (ip), vehicle: saline). Further, the T/C by setting is: (dose: 16.0 mg/kg/injection, schedule: Q01DX009 (ip), vehicle: saline) 107 % of control; (dose: 28.6 mg/kg/injection, schedule: Q01DX009 (ip), vehicle: saline) 109 % of control; (dose: 32.0 mg/kg/injection, schedule: Q01DX009 (ip), vehicle: saline) 122 % of control; (dose: 40.9 mg/kg/injection, schedule: Q01DX009 (ip), vehicle: saline) 109 % of control; (dose: 60.0 mg/kg/injection, schedule: Q04DX003 (ip), vehicle: saline) 150 % of control.

For the compound `Cc1nc(N)nc(N)c1-c1ccc(Cl)c(Cl)c1`, the T/C by setting is: (dose: 0.31 mg/kg/injection, schedule: Q01DX009 (ip), vehicle: saline) 108 % of control; (dose: 0.63 mg/kg/injection, schedule: Q01DX009 (ip), vehicle: saline) 109 % of control; (dose: 1.25 mg/kg/injection, schedule: Q01DX009 (ip), vehicle: saline) 113 % of control; under setting [1], 120 % of control; under setting [2], 109 % of control.

For the compound `Clc1ccc2nnnn2n1`, the T/C runs as follows: under setting [3], 102 % of control; under setting [4], 115 % of control; under setting [5], 104 % of control; under setting [6], 98 % of control; under setting [7], 108 % of control.

Turning to `CCN(C)N=Nc1ccc(C(N)=O)cc1`, the T/C is 104 % of control (dose: 6.25 mg/kg/injection, schedule: Q01DX009 (ip), vehicle: Klucel (hydroxypropylcellulose) (HPC)); 102 % of control (dose: 12.5 mg/kg/injection, schedule: Q01DX009 (ip), vehicle: Klucel (hydroxypropylcellulose) (HPC)); 109 % of control (dose: 25.0 mg/kg/injection, schedule: Q01DX009 (ip), vehicle: Klucel (hydroxypropylcellulose) (HPC)); 122 % of control (dose: 50.0 mg/kg/injection, schedule: Q01DX009 (ip), vehicle: Klucel (hydroxypropylcellulose) (HPC)); 87 % of control (dose: 100.0 mg/kg/injection, schedule: Q01DX009 (ip), vehicle: Klucel (hydroxypropylcellulose) (HPC)).

Consider `O=S(=O)(O)O.[NH-]C1CCCCC1[NH-].[Pt+2]` (stereo not drawn), for which the T/C is, setting by setting: (dose: 0.63 mg/kg/injection, schedule: Q01DX009 (ip), vehicle: dextrose) 101 % of control; (dose: 1.25 mg/kg/injection, schedule: Q01DX009 (ip), vehicle: dextrose) 110 % of control.

Take `N#CCCSC(=S)C1CCCC1=N` (stereo not drawn): the T/C reads like this: under setting [3], 105 % of control; under setting [4], 101 % of control; under setting [5], 106 % of control; under setting [6], 93 % of control; under setting [7], 98 % of control; (dose: 400.0 mg/kg/injection, schedule: Q01DX009 (ip), vehicle: saline with Tween-80) 106 % of control.

In the case of `COc1cccc2c1C(=O)c1c(O)c3c(c(O)c1C2=O)CC(O)(/C(C)=N/NC(=O)CCC(=O)N/N=C(\C)C1(O)Cc2c(O)c4c(c(O)c2C(OC2CC(N)C(O)C(C)O2)C1)C(=O)c1c(OC)cccc1C4=O)CC3OC1CC(N)C(O)C(C)O1` (stereo not drawn), the T/C was 96 % of control (dose: 1.5 mg/kg/injection, schedule: Q01DX009 (ip), vehicle: water); 108 % of control (dose: 3.0 mg/kg/injection, schedule: Q01DX009 (ip), vehicle: water); 101 % of control (dose: 6.0 mg/kg/injection, schedule: Q01DX009 (ip), vehicle: water); 123 % of control (dose: 12.0 mg/kg/injection, schedule: Q01DX009 (ip), vehicle: water).
